Test results: paper PMC5653814, “Regiospecific Synthesis of Ring A Fused Withaferin A Isoxazoline Analogues: Induction of Premature Senescence by W-2b in Proliferating Cancer Cells” (Scientific Reports, 2017)
Read-outs that look alike come from different tables or passages of the source.

Key:
[1] = MTT cell viability assay, fR2 normal breast epithelial cells; format: cell-based, human; conditions: human, fR2 normal breast epithelial cells, read-out: Cytotoxicity IC50, fR2
Description: (§1) The cell viability assay was performed according to the procedure previously described with minor modifications. Briefly, MCF7, HCT-116 and fR2 cells were plated in 96 well plates at a density of 5 × 10^3 cells per well and incubated overnight. […] MTT dye solution (2.5 mg/mL) was introduced to the cells in medium 4 h before the completion of the treatment period and the formed formazan crystals were solubilized with DMSO. Optical density was measured with the help of a UV-visible spectrophotometer coupled with microplate reader (TECAN, Infinite M200 Pro), the percent inhibition was calculated and IC50 values were determined with the help of GraphPad Prism software (GraphPad software Inc. CA, USA).
(§2) Data were expressed as the mean ± standard deviation of three independent experiments performed and analyzed by Student’s t-test. IC50 values were determined with the help of GraphPad Prism software Version 5.0 (GraphPad Software, Inc., USA) by taking the log of inhibitor vs. response. A 2-sided value of *P < 0.05 was considered significant in all cases.

MCF7 cells [2] = test: MTT cell viability assay, MCF7; format: cell-based, human; conditions: read-out: Cytotoxicity IC50, MCF7
Description: as §1, §2

HCT-116 cells [3] = test: MTT cell viability assay, HCT-116; format: cell-based, human; conditions: read-out: Cytotoxicity IC50, HCT-116
Description: as §1, §2

fR2 cells = test: MTT cell viability assay, fR2 normal breast epithelial cells; format: cell-based, human; conditions: 48 h, read-out: Cytotoxicity IC50, fR2
Description: as §1, §2

MCF7 cells [4] = test: SA-β-gal activity assay, MCF7; format: cell-based, human; conditions: MCF7, five days; doxorubicin 100 nM, WA 2–3 µM
Description: (§3) The procedure was followed as described previously with some modifications. Briefly, MCF7 and HCT-116 cells (0.4 × 10^6 per well) were seeded in six-well plates and treated with indicated concentrations of W-2b along with WA, vehicle and positive control doxorubicin for five days. Cells were accordingly washed twice with PBS, fixed with 4% paraformaldehyde for 5 min, rinsed twice with PBS and incubated with freshly prepared staining solution (40 mM citric acid/Na phosphate buffer, 5 mM K4[Fe(CN)6] 3H2O, 5 mM K3[Fe(CN)6], 150 mM sodium chloride, 2 mM magnesium chloride and 1 mg/ml X-gal in distilled water, pH 6.0) for 48 h at 37 °C. Stained cells were thoroughly washed and air dried in dark. Cells were then observed under bright field microscope (NIKON) for the SA-β-gal positive cells and images were captured at 20x magnification.

HCT-116 cells [5] = test: SA-β-gal activity assay, HCT-116; format: cell-based, human; conditions: HCT-116, five days; doxorubicin 100 nM, WA 2–3 µM
Description: as §3

[6] = test system: 4T1 mouse mammary carcinoma; test: In vivo tumor growth, 4T1 mouse mammary carcinoma model; conditions: 25 mg/kg b.w. intraperitoneal, each alternate day for two weeks
Description: The experiment was performed according to the pre-standardized protocol with minor modifications. To evaluate the in vivo anti-tumor efficacy of W-2b, healthy female Balb/c mice (25–30 g) were taken. Animals were randomized into three groups, and six animals were taken per group. For the tumor cells implantation, mouse mammary carcinoma 4T1 cells (1 × 10^6 per 200 μL) diluted in serum-free RPMI medium were injected subcutaneously into the mammary pad of each mouse around the second right mammary gland. A week after tumor cell implantation, when the palpable mammary tumors develop, mice were injected intraperitoneally with either vehicle (normal saline) or 5-FU (25 mg/kg/b.w.) or W-2b (25 mg/kg/b.w.) in each alternative day for two weeks. Tumor sizes were measured in each alternate day after tumor cell injection, and the body weight was recorded once in a week. Mice were sacrificed on the 15th day after treatment initiation, and tumors were dissected out carefully from the mammary pad area.

[7] = Homo sapiens, HCT-116, 48 h, 48 h

| SMILES | IC50 at 48 h [1] | IC50 (MCF7 cells [2]; 48 h) | IC50 (HCT-116 cells [3]; 48 h) | IC50 (MCF7 cells [2]; Homo sapiens, MCF7, 48 h, 48 h) | IC50 (HCT-116 cells [3]; [7]) | further results |
| --- | --- | --- | --- | --- | --- | --- |
| CC1=C(CO)C(=O)OC(C(C)C2CCC3C4CC5OC56C(O)C5ON=C(c7ccc(Br)cc7)C5C(=O)C6(C)C4CCC23C)C1 (stereo not drawn) [W-3a, 4-bromophenyl-2-isoxazoline withaferin A] | > 100 µM | 95.5 ± 5.41 µM | 45.8 ± 2.34 µM |  |  |  |
| CC1=C(CO)C(=O)OC(C(C)C2CCC3C4CC5OC56C(O)C5ON=C(c7ccc(Br)cc7)C5C(=O)C6(C)C4CCC23C)C1 (stereo not drawn) [W-3b, 4-bromophenyl-2-isoxazoline withaferin A] |  | 1.82 ± 0.33 µM | 15.9 ± 1.67 µM |  |  | IC50 (fR2 cells): 85.3 ± 9.5 µM |
| COc1cc(C(F)(F)F)ccc1C1=NOC2C1C(=O)C1(C)C3CCC4(C)C(C(C)C5CC(C)=C(CO)C(=O)O5)CCC4C3CC3OC31C2O (stereo not drawn) [W-9b, 2-methoxy-4-trifluorophenyl-2-isoxazoline withaferin A] | 66.2 ± 7.63 µM |  |  | > 100 µM | 15.8 ± 3.31 µM |  |
| COc1cccc2c1C(=O)c1c(O)c3c(c(O)c1C2=O)C[C@@](O)(C(=O)CO)C[C@@H]3O[C@H]1C[C@H](N)[C@H](O)[C@H](C)O1 [doxorubicin] |  |  |  |  |  | SA-β-gal staining, senescent cells (in words) (MCF7 cells [4]): substantial increase in the number of cells with distinct senescence phenotype; SA-β-gal staining, senescent cells (in words) (HCT-116 cells [5]): substantial increase in the number of cells with distinct senescence phenotype |
| CC1=C(CO)C(=O)OC(C(C)C2CCC3C4CC5OC56C(O)C5ON=C(c7ccncc7)C5C(=O)C6(C)C4CCC23C)C1 (stereo not drawn) [W-5b, pyridenyl-2-isoxazoline withaferin A] |  | 9.7 ± 0.55 µM | 42.4 ± 3.19 µM |  |  | IC50 (fR2 cells): 91.2 ± 7.33 µM |
| CC1=C(CO)C(=O)O[C@@H]([C@@H](C)C2CCC3C4C[C@H]5O[C@]56[C@@H](O)[C@H]5ON=C(c7ccc(Cl)cc7)[C@H]5C(=O)[C@]6(C)C4CC[C@@]32C)C1 (stereo partly drawn) [W-1a, 4-chlorophenyl-2-isoxazoline withaferin A] | 45.8 ± 5.19 µM |  |  | 3.8 ± 0.378 µM | 5.62 ± 0.412 µM |  |
| CC1=C(CO)C(=O)OC(C(C)C2CCC3C4CC5OC56C(O)C5ON=C(c7ccc([N+](=O)[O-])cc7)C5C(=O)C6(C)C4CCC23C)C1 (stereo not drawn) [W-2a, 4-nitrophenyl-2-isoxazoline withaferin A] | 52.1 ± 6.6 µM | 5.82 ± 0.418 µM | 8.2 ± 0.211 µM |  |  |  |
| CC1=C(CO)C(=O)OC(C(C)C2CCC3C4CC5OC56C(O)C5ON=C(c7ccc(C(F)(F)F)cc7)C5C(=O)C6(C)C4CCC23C)C1 (stereo not drawn) [W-11a, 4-trifluorophenyl-2-isoxazoline withaferin A] | > 100 µM |  | 24.5 ± 2.55 µM | > 100 µM |  |  |
| CC1=C(CO)C(=O)O[C@@H]([C@@H](C)[C@H]2CC[C@H]3[C@@H]4C[C@H]5O[C@]56[C@@H](O)C=CC(=O)[C@]6(C)[C@H]4CC[C@]23C)C1 [WA, Withaferin A] | 43.3 ± 3.77 µM |  |  | 1.75 ± 0.376 µM | 2.58 ± 0.415 µM | SA-β-gal staining, senescent cells (in words) (MCF7 cells [4]): very less number of senescent cells; SA-β-gal staining, senescent cells (in words) (HCT-116 cells [5]): very less number of senescent cells; IC50 at 24 h ([1]; 24 h): 51.1 ± 5.18 µM; IC50 at 72 h ([1]; 72 h): 38.3 ± 5.22 µM; IC50 (MCF7 cells [2]; Homo sapiens, MCF7, 24 h, 24 h): 9.18 ± 1.36 µM; IC50 (MCF7 cells [2]; Homo sapiens, MCF7, 72 h, 72 h): 1.46 ± 0.291 µM; IC50 (HCT-116 cells [3]; Homo sapiens, HCT-116, 24 h, 24 h): 4.38 ± 1.67 µM; IC50 (HCT-116 cells [3]; Homo sapiens, HCT-116, 72 h, 72 h): 2.13 ± 0.55 µM |
| O=c1[nH]cc(F)c(=O)[nH]1 [5-FU, 5-fluorouracil, reference compound] |  |  |  |  |  | Inhibition in tumor volume ([6]; Balb/c mice): 78.4%; Inhibition in tumor weight ([6]; vs normal saline group): 86.7% |
| CC(=O)OCC1=C(C)C[C@H]([C@@H](C)C2CCC3C4C[C@H]5O[C@]56[C@@H](OC(C)=O)[C@@H]5ON=C(c7ccc(F)cc7)[C@@H]5C(=O)[C@]6(C)C4CC[C@@]32C)OC1=O (stereo partly drawn) [W-12b, 4-fluorophenyl-2-isoxazoline 4,27-acetylwithaferin A] | 75.6 ± 4.82 µM |  |  | 26.9 ± 2.22 µM | 5.29 ± 0.151 µM |  |
| CC1=C(CO)C(=O)OC(C(C)C2CCC3C4CC5OC56C(O)C5ON=C(c7ccccc7C(F)(F)F)C5C(=O)C6(C)C4CCC23C)C1 (stereo not drawn) [W-8a, 2-trifluoromethylphenyl-2-isoxazoline withaferin A] | 28.2 ± 4.21 µM |  |  | 17.6 ± 1.68 µM | 7.5 ± 1.13 µM |  |
| CC1=C(CO)C(=O)OC(C(C)C2CCC3C4CC5OC56C(O)C5ON=C(c7ccc(Cl)cc7Cl)C5C(=O)C6(C)C4CCC23C)C1 (stereo not drawn) [W-6a] | > 100 µM | 2.28 ± 0.265 µM | > 100 µM |  |  |  |
| CC1=C(CO)C(=O)OC(C(C)C2CCC3C4CC5OC56C(O)C5ON=C(c7ccc(F)cc7)C5C(=O)C6(C)C4CCC23C)C1 (stereo not drawn) [W-4a, 4-fluorophenyl-2-isoxazoline withaferin A] |  | > 100 µM | 19.6 ± 1.81 µM |  |  | IC50 (fR2 cells): > 100 µM |
| CC1=C(CO)C(=O)OC(C(C)C2CCC3C4CC5OC56C(O)C5ON=C(c7c(Cl)cccc7Cl)C5C(=O)C6(C)C4CCC23C)C1 (stereo not drawn) [W-10a, 2,6-dichlorophenyl-2-isoxazoline withaferin A] | 98.1 ± 7.18 µM |  |  | 58.3 ± 3.24 µM | 5.28 ± 0.561 µM |  |
| CC1=C(CO)C(=O)OC(C(C)C2CCC3C4CC5OC56C(O)C5ON=C(c7ccc(C(F)(F)F)cc7)C5C(=O)C6(C)C4CCC23C)C1 (stereo not drawn) [W-11b, 4-trifluorophenyl-2-isoxazoline withaferin A] |  | 83.3 ± 6.51 µM | 4.16 ± 0.344 µM |  |  | IC50 (fR2 cells): > 100 µM |
| CC1=C(CO)C(=O)O[C@@H]([C@@H](C)C2CCC3C4C[C@H]5O[C@]56[C@@H](O)[C@@H]5ON=C(c7ccc(Cl)cc7)[C@@H]5C(=O)[C@]6(C)C4CC[C@@]32C)C1 (stereo partly drawn) [W-1b, 4-chlorophenyl-2-isoxazoline withaferin A] | 39.2 ± 3.81 µM |  |  | 1.64 ± 0.267 µM | 16.2 ± 0.676 µM |  |
| COc1ccc(Br)cc1C1=NOC2C1C(=O)C1(C)C3CCC4(C)C(C(C)C5CC(C)=C(CO)C(=O)O5)CCC4C3CC3OC31C2O (stereo not drawn) [W-7a, 3-bromo-6-methoxyphenyl-2-isoxazoline withaferin A] | > 100 µM |  |  | 70.6 ± 5.18 µM | 8.1 ± 1.66 µM |  |
| CC1=C(CO)C(=O)OC(C(C)C2CCC3C4CC5OC56C(O)C5ON=C(c7ccc(F)cc7)C5C(=O)C6(C)C4CCC23C)C1 (stereo not drawn) [W-4b, 4-fluorophenyl-2-isoxazoline withaferin A] | > 100 µM |  | > 100 µM | > 100 µM |  |  |
| CC1=C(CO)C(=O)OC(C(C)C2CCC3C4CC5OC56C(O)C5ON=C(c7ccncc7)C5C(=O)C6(C)C4CCC23C)C1 (stereo not drawn) [W-5a, pyridenyl-2-isoxazoline withaferin A] | > 100 µM | 3.52 ± 0.185 µM |  |  | 63.8 ± 5.43 µM |  |
